Reference: article PMC10508264, “Exploring the antioxidant, antimicrobial, cytotoxic and biothermodynamic properties of novel morpholine derivative bioactive Mn(II), Co(II) and Ni(II) complexes – combined experimental and theoretical measurements towards DNA/BSA/SARS-CoV-2 3CL^Pro” (RSC Medicinal Chemistry, 2023)

Legend:
EB–DNA = EB–DNA competitive fluorescence emission titration; format: binding; conditions: for KSV (SV method I), DNA / Kass (SV method II), DNA / Kq (SV method I), DNA: EB–DNA; for Kq (SV method I), DNA: τ0 = 10^−8 s; for Kapp (apparent binding constant): KEB = 10^7 M^−1 at 50 μM EB; for LWB method KLB: Lineweaver–Burk
Description: Titrations were performed for all tested compounds (1–200 μM) with pre-incubated EB-bound DNA and the intensity variations between 510 nm and 610 nm were carefully monitored in the presence and absence of DNA (200 μM) during the initial emission and excitation by EB.[31]
Fluorescence emission spectral titration is an efficient approach to evaluating the binding properties of DNA/BSA biomolecules. In general, the fluorescence of EB is quite weak in aqueous solution, but when it is bound to DNA, the fluorescence intensity rises. However, it is a well-known imperative intercalator and is more supportive in distinguishing the binding strength of non-fluorescence test substances. Also, the fluorescence emission spectra of the EB–DNA adduct were examined at 610 nm in the absence and presence of rising quantities of each test compound. When the complex concentration (0–240 μM) rises, the fluorescence intensity of the EB-bound DNA complex diminishes owing to the displacement of EB from CT-DNA. A notable reduction in the fluorescence emission intensity at 610 nm is observed (Fig. S26 ^† and Table 4). The photoelectron shift from DNA's guanine base to the excited states may be the cause of the frequency quenching in the emission of the test substance by DNA. […] Therefore, the competitive binding experiment can make use of EB as a fluorescent probe. […] This is further evidence that complexes (1–3) strongly bind intercalatively with DNA. The observed results agree well with the data from electronic absorption spectral measurements. Additionally, the experiment was extended to examine the binding properties between the test substance and BSA. BSA mostly contains three amino acid residues (tyrosine, tryptophan, and phenylalanine), which give it its inherent fluorescence. […] These two residues also have minimal quenching effects. Tryptophan in BSA fluoresces mostly because of a residue that is trapped inside a hydrophobic cavity. Therefore, it is crucial to model potential binding interactions with the metal complexes. […] The fluorescence intensity also reduces while the test substances (1–3) are steadily blended with the BSA solution, proving that complexes (1–3) interact with BSA via altering the protein's secondary structure, which also leads to an alteration in the tryptophan environment of BSA (Fig. S27 ^†). Furthermore, BSA structural similarities share 76% sequence identity with human serum albumin (HSA), the most prevalent protein in blood plasma that transports ions and proteins to cells and tissues. HSA is able to readily crystallize under the trivalent cations, but BSA has no ready crystallizing property. However, they consist of parallel physicochemical properties to each other.[74,75] Additionally, the Stern–Volmer eqn (12) and (13) were employed to analyze the data (Fig. S28 ^† and Table 4). Additionally, the kq values for DNA and BSA binding were acquired in the range of 1.1636–2.8863 × 10^12 and 2.6390–7.0774 × 10^12 mol^−1 s^−1, respectively. They are also much greater than the collision quenching constant value (2.0 × 10^10 mol^−1 s^−1). Therefore, it is assumed that the static quenching process was brought on by adduct construction between the test compounds and BSA rather than a dynamic collision. However, fluorescence spectroscopy is generally plagued by the inner filter effect (IFE), disturbing spectral analysis. The energizing ray is attenuated due to the highly concentrated solution sample. As a result, strong fluorescence is only seen on surfaces facing the excitation beam.

[1] = Nitric oxide scavenging assay; format: biochemical; conditions: 546 nm
Escherichia coli = assay: Agar disc diffusion, strain A; format: cell-based; design: Inhibition%: concentration or dose not given beside the values; conditions: for Diameter of clear zone inhibition: control (DMSO) 6 mm
Pseudomonas aeruginosa = assay: Agar disc diffusion, strain D; format: cell-based; design: Inhibition%: concentration or dose not given beside the values; conditions: for Diameter of clear zone inhibition: control 6 mm
Bacillus cereu = assay: Agar disc diffusion, strain G; format: cell-based; design: Inhibition%: concentration or dose not given beside the values; conditions: for Diameter of clear zone inhibition: control 6 mm
Aspergillus niger = assay: Agar disc diffusion, strain H; format: cell-based; design: Inhibition%: concentration or dose not given beside the values; conditions: for Diameter of clear zone inhibition: control 6 mm
Candida albicans = assay: Agar disc diffusion, strain I; format: cell-based; design: Inhibition%: concentration or dose not given beside the values; conditions: for Diameter of clear zone inhibition: control 6 mm
Mucor indicus = assay: Agar disc diffusion, strain J; format: cell-based; design: Inhibition%: concentration or dose not given beside the values; conditions: for Diameter of clear zone inhibition: control 6 mm
HepG2 = assay: MTT cell viability assay, HepG2; format: cell-based, human; conditions: HepG2, 72 h of exposure
MCF-7 = assay: MTT cell viability assay, MCF-7; format: cell-based, human; conditions: MCF-7, 72 h of exposure
[2] = Superoxide scavenging assay; conditions: for % Inhibition, superoxide: 590 nm; for IC50: read-out: IC50, superoxide

Compound	Scatchard analysis KSA (EB–DNA)	KSV (SV method I), DNA (EB–DNA)	Kass (SV method II), DNA (EB–DNA)	Kq (SV method I), DNA (EB–DNA)	Kapp (apparent binding constant) (EB–DNA)	LWB method KLB (EB–DNA)	% Inhibition, nitric oxide ([1]; 40 µM)	% Inhibition, nitric oxide ([1]; 80 µM)	% Inhibition, nitric oxide ([1]; 120 µM)	% Inhibition, nitric oxide ([1]; 160 µM)	% Inhibition, nitric oxide ([1]; 200 µM)	% Inhibition, nitric oxide ([1]; 240 µM)	Inhibition% (Escherichia coli)	Diameter of clear zone inhibition (Escherichia coli)	Inhibition% (Pseudomonas aeruginosa)	Diameter of clear zone inhibition (Pseudomonas aeruginosa)	Inhibition% (Bacillus cereu)	Diameter of clear zone inhibition (Bacillus cereu)	Inhibition% (Aspergillus niger)	Diameter of clear zone inhibition (Aspergillus niger)	other results
[Mn+2].[O-]c1ccccc1N=Cc1ccc(N2CCOCC2)cc1.[O-]c1ccccc1N=Cc1ccc(N2CCOCC2)cc1.c1ccc(-c2ccccn2)nc1 [(1)]	30094 M⁻¹	16755 M⁻¹	11954 M⁻¹	1.6755e+12 M⁻¹ s⁻¹	5.926e+06 M⁻¹	7149 M⁻¹	13.14%	22.48%	28.54%	36.64%	44.75%	56.69%	40%	10 mm	63%	16 mm	57%	14 mm	50%	12 mm	Inhibition% (Candida albicans): 57%; Diameter of clear zone inhibition (Candida albicans): 14 mm; Inhibition% (Mucor indicus): 45%; Diameter of clear zone inhibition (Mucor indicus): 11 mm; IC50 (HepG2): 36 ± 1.8 µM; IC50 (MCF-7): 36.6 ± 1.8 µM; % Inhibition, superoxide ([2]; 40 µM): 06.85%; % Inhibition, superoxide ([2]; 80 µM): 13.32%; % Inhibition, superoxide ([2]; 120 µM): 22.56%; % Inhibition, superoxide ([2]; 160 µM): 36.63%; % Inhibition, superoxide ([2]; 200 µM): 45.42%; % Inhibition, superoxide ([2]; 240 µM): 54.12%
[Co+2].[O-]c1ccccc1N=Cc1ccc(N2CCOCC2)cc1.[O-]c1ccccc1N=Cc1ccc(N2CCOCC2)cc1.c1ccc(-c2ccccn2)nc1 [(2)]	33185 M⁻¹	28863 M⁻¹	32903 M⁻¹	2.8863e+12 M⁻¹ s⁻¹	8.349e+06 M⁻¹	13497 M⁻¹	14.72%	23.62%	31.21%	39.12%	46.06%	61.34%	40%	10 mm	54%	13 mm	54%	13 mm	50%	12 mm	Inhibition% (Candida albicans): 50%; Diameter of clear zone inhibition (Candida albicans): 12 mm; Inhibition% (Mucor indicus): 45%; Diameter of clear zone inhibition (Mucor indicus): 11 mm; IC50 (HepG2): 35.9 ± 1.8 µM; IC50 (MCF-7): 35.9 ± 1.8 µM; % Inhibition, superoxide ([2]; 40 µM): 07.02%; % Inhibition, superoxide ([2]; 80 µM): 11.73%; % Inhibition, superoxide ([2]; 120 µM): 25.81%; % Inhibition, superoxide ([2]; 160 µM): 43.12%; % Inhibition, superoxide ([2]; 200 µM): 54.42%; % Inhibition, superoxide ([2]; 240 µM): 62.24%; IC50 [2]: 200 µM
[Ni+2].[O-]c1ccccc1N=Cc1ccc(N2CCOCC2)cc1.[O-]c1ccccc1N=Cc1ccc(N2CCOCC2)cc1.c1ccc(-c2ccccn2)nc1 [(3)]	32363 M⁻¹	16879 M⁻¹	10350 M⁻¹	1.6879e+12 M⁻¹ s⁻¹	7.34e+06 M⁻¹	7786 M⁻¹	14.72%	23.28%	29.66%	38.63%	45.60%	59.65%	50%	12 mm	57%	14 mm	54%	13 mm	50%	12 mm	Inhibition% (Candida albicans): 63%; Diameter of clear zone inhibition (Candida albicans): 16 mm; Inhibition% (Mucor indicus): 54%; Diameter of clear zone inhibition (Mucor indicus): 13 mm; IC50 (HepG2): 33.6 ± 1.7 µM; IC50 (MCF-7): 34.5 ± 1.7 µM; % Inhibition, superoxide ([2]; 40 µM): 06.27%; % Inhibition, superoxide ([2]; 80 µM): 12.17%; % Inhibition, superoxide ([2]; 120 µM): 24.31%; % Inhibition, superoxide ([2]; 160 µM): 40.01%; % Inhibition, superoxide ([2]; 200 µM): 50.78%; % Inhibition, superoxide ([2]; 240 µM): 58.83%; IC50 [2]: 200 µM
Oc1ccccc1N=Cc1ccc(N2CCOCC2)cc1 [(HL), 2-(4-morpholinobenzylideneamino)phenol]	19093 M⁻¹	11636 M⁻¹	9606 M⁻¹	1.1636e+12 M⁻¹ s⁻¹	5.829e+06 M⁻¹	6985 M⁻¹	11.42%	18.26%	24.28%	33.21%	40.53%	51.62%	33%	09 mm	25%	08 mm	33%	09 mm	40%	10 mm	Inhibition% (Candida albicans): 40%; Diameter of clear zone inhibition (Candida albicans): 10 mm; Inhibition% (Mucor indicus): 45%; Diameter of clear zone inhibition (Mucor indicus): 11 mm; IC50 (HepG2; Homo sapiens): 108 ± 5.4 µM; IC50 (MCF-7; Homo sapiens, MCF7): 105 ± 5.3 µM; % Inhibition, superoxide ([2]; 40 µM): 05.23%; % Inhibition, superoxide ([2]; 80 µM): 10.74%; % Inhibition, superoxide ([2]; 120 µM): 18.85%; % Inhibition, superoxide ([2]; 160 µM): 33.55%; % Inhibition, superoxide ([2]; 200 µM): 40.91%; % Inhibition, superoxide ([2]; 240 µM): 50.42%
